Measurements published in patent US20250195513A1, “DEGRADATION OF IRAK4 BY CONJUGATION OF IRAK4 INHIBITORS WITH E3 LIGASE LIGAND AND METHODS OF USE” (BeiGene, Ltd., priority 2022, published 2025).

Columns and labels:
Type in all cases: cell-based
[1] = molecular target: T1, IRAK4 (Homo sapiens, UniProt Q9NWZ3); assay: IRAK4 Degradation Assay (Karpas299, HTRF/TR-FRET)
T1 construct: endogenous in cells; host or cells: Karpas299
T1 sequence (Q9NWZ3 1-460): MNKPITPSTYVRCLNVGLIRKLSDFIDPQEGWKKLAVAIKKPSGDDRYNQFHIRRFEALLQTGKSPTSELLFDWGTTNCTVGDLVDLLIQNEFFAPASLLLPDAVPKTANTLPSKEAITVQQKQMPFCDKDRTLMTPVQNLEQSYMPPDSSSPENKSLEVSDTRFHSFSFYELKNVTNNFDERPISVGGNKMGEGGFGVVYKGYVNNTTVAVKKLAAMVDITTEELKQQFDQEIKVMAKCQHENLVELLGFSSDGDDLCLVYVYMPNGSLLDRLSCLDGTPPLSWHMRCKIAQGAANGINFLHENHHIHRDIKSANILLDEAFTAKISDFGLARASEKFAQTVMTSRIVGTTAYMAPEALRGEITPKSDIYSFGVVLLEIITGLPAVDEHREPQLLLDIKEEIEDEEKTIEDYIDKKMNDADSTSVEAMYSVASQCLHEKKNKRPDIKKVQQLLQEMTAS
In short: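 Karpas299 cells at 0.2 million per well were exposed to serially diluted compounds for 24 h or 5 h, then lysed. IRAK4 remaining in lysates was quantified by HTRF (665/620 nm) after overnight antibody incubation at room temperature. Percent degradation was fitted to a four-parameter curve to give IC50 (DC50).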

[2] = molecular target: T1, IRAK4; assay: IRAK4 Degradation Assay with Human Serum (Karpas299, HTRF/TR-FRET); details: Karpas-299 in human serum, 24 hrs treatment; for DC50: read-out: IRAK4 degradtion with human serum assay DC50; for Dmax: read-out: IRAK4 degradtion with human serum assay Dmax (%)
In short: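 Karpas299 cells in human AB serum (0.2 million/well) treated with serial compound dilutions for 24 h. After lysis, IRAK4 quantified by HTRF (overnight antibody incubation at room temperature, 665/620 nm read). Degradation percentage fitted to four-parameter curve to give DC50.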

[3] = tested on: TNF-α production in THP-1 cells; assay: TNF-α Production Assay in THP-1 Cells (LPS stimulated); details: Homo sapiens, THP-1, 24 h; for Emax: maximum inhibition, read-out: TNF-α (THP-1) 24 h IMax
In short: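 Cells (0.2 million/well) pretreated with compounds for 24 h, then stimulated with LPS at 1 μg/mL final for 24 h. TNF-α in culture supernatant quantified by TR-FRET immunoassay.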

[4] = tested on: IL-6 production in human PBMC; assay: IL-6 Production Assay in Human PBMC (LPS stimulated); details: Homo sapiens, 5 h; for Emax: maximum inhibition, read-out: IL-6 (PBMC) 5 h IMax
Procedure: Frozen human PBMC (AllCells) were thawed in RPMI 1640 medium (Thermo Scientific) supplemented with 10% heat-inactivated FBS (Thermo Scientific) and recovered at 37° C. overnight. The next day, PBMC were seeded into 96-well plates at the density of 0.2 million cells per well and treated with compounds for 24 h. Then lipopolysaccharide was added at the final concentration of 10 ng/mL for 5 h. Culture supernatant was collected for subsequent measurement of IL-6 concentration by a TR-FRET-based method (Degorce, François, et al. Current chemical genomics. 2009, 3: 22) as described by the manufacturer manual (Cisbio). FRET signals were measured with PHERAstar FSX reader (BMG Labtech).

[5] = Karpas-299 cells, 5 h treatment, maximum percentage of degradation, read-out: IRAK4 in Karpas-299 (5 h) Dmax (%)
[6] = Karpas-299 cells, 5 h treatment, read-out: IRAK4 in Karpas-299 (5 h) DC50
[7] = Karpas-299 cells, 24 h treatment, maximum percentage of degradation, read-out: IRAK4 in Karpas-299 (24 h) Dmax (%)
[8] = Karpas-299 cells, 24 h treatment, read-out: IRAK4 in Karpas-299 (24 h) DC50

Compound	Dmax [1, 5]	DC50 [1, 6]	Dmax [1, 7]	DC50 [1, 8]	DC50 [2]	Dmax [2]	IC50 [3]	Emax [3]	IC50 [4]	Emax [4]	DC50 ([1]; Degradation (Karpas-299), comparison table, Linker Type B, read-out: Compound (Linker Type B) DC50)	Dmax ([1]; Degradation (Karpas-299), comparison table, Linker Type B, read-out: Compound (Linker Type B) Dmax (%))
CC(C)(O)c1cc2nn([C@H]3CC[C@H](N4CCN(C5CCN(c6cc(F)c(C7CCC(=O)NC7=O)c(F)c6)CC5)CC4)CC3)cc2cc1NC(=O)c1ccc2cc(C#N)cnn12 (stereo partly drawn) [Example 196, 3-cyano-N-(2-((1r,4r)-4-(4-(1-(4-((R)-2,6-dioxopiperidin-3-yl)-3,5-difluorophenyl)piperidin-4-yl)piperazin-1-yl)cyclohexyl)-6-(2-hydroxypropan-2-yl)-2H-indazol-5-yl)pyrrolo[1,2-b]pyridazine-7-carboxamide]	99%	5.3 nM	99%	0.6 nM	8.8 nM	93%	20 nM	86%	11 nM	72%		
O=C1CC[C@H](c2c(F)cc(N3CC[C@@H](C(=O)N4CCN([C@H]5CC[C@H](n6cc(NC(=O)c7coc(-c8ccnc(NCC(F)(F)F)c8)n7)c(C(F)F)n6)CC5)CC4)C3)cc2F)C(=O)N1 [Example 17, N-(3-(difluoromethyl)-1-((1R,4r)-4-(4-((R)-1-(4-((R)-2,6-dioxopiperidin-3-yl)-3,5-difluorophenyl)pyrrolidine-3-carbonyl)piperazin-1-yl)cyclohexyl)-1H-pyrazol-4-yl)-2-(2-((2,2,2-trifluoroethyl)amino)pyridin-4-yl)oxazole-4-carboxamide]	96%	8.8 nM	97%	2.2 nM			34 nM	87%	6.7 nM	93%		
COC[C@H]1CN([C@H]2CC[C@H](n3cc4cc(NC(=O)c5ccc6cc(C#N)cnn56)c(C(C)(C)O)cc4n3)CC2)CCN1CCc1cc(F)c([C@H]2CCC(=O)NC2=O)c(F)c1 [Example 314, 3-cyano-N-(2-((1R,4r)-4-((R)-4-(4-((R)-2,6-dioxopiperidin-3-yl)-3,5-difluorophenethyl)-3-(methoxymethyl)piperazin-1-yl)cyclohexyl)-6-(2-hydroxypropan-2-yl)-2H-indazol-5-yl)pyrrolo[1,2-b]pyridazine-7-carboxamide]			98%	0.6 nM	3.4 nM	98%	26 nM	88%	2.3 nM	51%		
NC(=O)c1nn([C@H]2CC[C@H](N3CCN(C(=O)[C@@H]4CCN(c5cc(F)c([C@H]6CCC(=O)NC6=O)c(F)c5)C4)CC3)CC2)cc1NC(=O)c1coc(-c2ccnc(NCC(F)(F)F)c2)n1 [Example 12, N-(3-carbamoyl-1-((1R,4r)-4-(4-((R)-1-(4-((R)-2,6-dioxopiperidin-3-yl)-3,5-difluorophenyl)pyrrolidine-3-carbonyl)piperazin-1-yl)cyclohexyl)-1H-pyrazol-4-yl)-2-(2-((2,2,2-trifluoroethyl)amino)pyridin-4-yl)oxazole-4-carboxamide]	97%	5.4 nM	98%	1.8 nM			25 nM	90%	4.6 nM	91%		
[2H]C([2H])([2H])Oc1cc2nn([C@H]3CC[C@H](N4CCN(C(=O)C5CN(c6cc(F)c([C@H]7CCC(=O)NC7=O)c(F)c6)C5)CC4)CC3)cc2cc1NC(=O)c1cccc(C(F)(F)F)n1 [Example 165, N-(2-((1r,4r)-4-(4-(1-(4-((R)-2,6-dioxopiperidin-3-yl)-3,5-difluorophenyl)azetidine-3-carbonyl)piperazin-1-yl)cyclohexyl)-6-(methoxy-d3)-2H-indazol-5-yl)-6-(trifluoromethyl)picolinamide]	97%	13 nM	98%	0.7 nM			73 nM	82%	7.9 nM	91%		
COc1cc2nn([C@H]3CC[C@H](N4CCN(C(=O)C5CN(c6ccc(N7CCC(=O)NC7=O)cc6)C5)CC4)CC3)cc2cc1NC(=O)c1cccc(C(F)(F)F)n1 [Example 37, N-(2-((1r,4r)-4-(4-(1-(4-(2,4-dioxotetrahydropyrimidin-1(2H)-yl)phenyl)azetidine-3-carbonyl)piperazin-1-yl)cyclohexyl)-6-methoxy-2H-indazol-5-yl)-6-(trifluoromethyl)picolinamide]	93%	9.1 nM	96%	0.7 nM			34 nM	82%	11 nM	90%	0.7 nM	96%
COc1cc2nn([C@H]3CC[C@H](CN4CCN(C(=O)[C@H]5CCN(c6ccc(N7CCC(=O)NC7=O)cc6)C5)CC4)CC3)cc2cc1NC(=O)c1cccn(C2CC2)c1=O [Example 34, 1-cyclopropyl-N-(2-((1S,4r)-4-((4-((S)-1-(4-(2,4-dioxotetrahydropyrimidin-1(2H)-yl)phenyl)pyrrolidine-3-carbonyl)piperazin-1-yl)methyl)cyclohexyl)-6-methoxy-2H-indazol-5-yl)-2-oxo-1,2-dihydropyridine-3-carboxamide]	81%	18 nM	95%	3.6 nM			77 nM	72%	18 nM	85%		
CC(C)(O)c1cc2nn(C3CCN(C4CCN(C(=O)[C@@H]5CCN(c6cc(F)c([C@H]7CCC(=O)NC7=O)c(F)c6)C5)CC4)CC3)cc2cc1NC(=O)c1cccc(C(F)(F)F)n1 [Example 161, N-(2-(1′-((R)-1-(4-((R)-2,6-dioxopiperidin-3-yl)-3,5-difluorophenyl)pyrrolidine-3-carbonyl)-[1,4′-bipiperidin]-4-yl)-6-(2-hydroxypropan-2-yl)-2H-indazol-5-yl)-6-(trifluoromethyl)picolinamide]	91%	5 nM	97%	0.3 nM			38 nM	85%	4.9 nM	90%		
CC(C)(O)c1cc2nn([C@H]3CC[C@H](N4CCN(C(=O)C5CN(c6cc(F)c([C@H]7CCC(=O)NC7=O)c(F)c6)C5)CC4)CC3)cc2cc1NC(=O)c1cccc(C(F)(F)F)n1 [Example 38, N-(2-((1r,4r)-4-(4-(1-(4-((R)-2,6-dioxopiperidin-3-yl)-3,5-difluorophenyl)azetidine-3-carbonyl)piperazin-1-yl)cyclohexyl)-6-(2-hydroxypropan-2-yl)-2H-indazol-5-yl)-6-(trifluoromethyl)picolinamide]	95%	2.3 nM	99%	0.4 nM			19 nM	87%	2.1 nM	91%		
CC(C)(O)c1cc2nc(C3CCN(C4CCN(C(=O)C5CN(c6cc(F)c([C@H]7CCC(=O)NC7=O)c(F)c6)C5)CC4)CC3)cn2cc1NC(=O)c1cccc(C(F)(F)F)n1 [Example 126, (R)—N-(2-(1′-(1-(4-(2,6-dioxopiperidin-3-yl)-3,5-difluorophenyl)azetidine-3-carbonyl)-[1,4′-bipiperidin]-4-yl)-7-(2-hydroxypropan-2-yl)imidazo[1,2-a]pyridin-6-yl)-6-(trifluoromethyl)picolinamide]	92%	8.4 nM	99%	1.1 nM			43 nM	88%	23 nM	90%		
